18 compounds from US9573969B2, “Compounds and compositions as kinase inhibitors” (NOVARTIS AG, priority 2014, dated 2017) can be followed below.

Data set [1] is described as follows: high throughput solubility assay. It is filed as physicochemical. The conditions noted are these: for solubility: buffer solution, thermodynamic from solid. The protocol:
Solubility of the compounds of the invention was assessed in a high throughput solubility assay: compounds were received as 10 mM DMSO solutions. The DMSO stock solution was then transferred into a microtiter plate. The DMSO solvent was dried with a solvent evaporator (GeneVac). After the addition of buffer solution (pH 6.8, pH 4.0 or FaSSIF), the plate was sealed and shaken for 16-24 hours at room temperature. The plate was centrifuged for phase separation and the supernatant quantified by a RapidFire 365 High-throughput MS System (Agilant) coupled with a mass spectrometer (Sciex), using a calibration curve constructed with the same DMSO stock solution. Solubility results (μM) are obtained in triplicate.

In the next data set the target is T1, C-Raf (Homo sapiens, UniProt P04049, Y340E/Y341E).
T1 construct: His tag (implied by nickel chromatography) and/or StrepII tag; made in house; host or cells: Sf9 insect cells (baculovirus) for CRAF and h14-3-3 zeta; E. coli for MEK1
T1 sequence (P04049 whole entry Y340E/Y341E): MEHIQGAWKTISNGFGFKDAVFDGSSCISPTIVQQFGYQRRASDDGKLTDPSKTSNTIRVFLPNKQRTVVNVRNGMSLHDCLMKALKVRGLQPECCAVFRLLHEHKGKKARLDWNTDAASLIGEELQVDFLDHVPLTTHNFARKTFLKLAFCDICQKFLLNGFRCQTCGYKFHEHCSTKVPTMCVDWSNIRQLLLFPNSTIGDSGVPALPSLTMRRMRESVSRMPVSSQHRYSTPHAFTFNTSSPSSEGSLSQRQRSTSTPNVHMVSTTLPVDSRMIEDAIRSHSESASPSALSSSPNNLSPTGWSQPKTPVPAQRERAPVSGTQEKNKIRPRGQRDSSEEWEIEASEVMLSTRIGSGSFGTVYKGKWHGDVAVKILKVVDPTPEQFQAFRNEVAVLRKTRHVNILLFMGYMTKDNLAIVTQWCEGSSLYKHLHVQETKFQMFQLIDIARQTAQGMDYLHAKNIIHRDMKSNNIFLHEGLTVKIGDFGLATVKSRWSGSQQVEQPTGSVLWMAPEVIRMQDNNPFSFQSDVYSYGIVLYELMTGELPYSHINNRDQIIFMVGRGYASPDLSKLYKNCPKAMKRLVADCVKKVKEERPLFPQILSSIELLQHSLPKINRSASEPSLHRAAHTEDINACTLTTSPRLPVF
T1 sequence (P63104 whole entry partner): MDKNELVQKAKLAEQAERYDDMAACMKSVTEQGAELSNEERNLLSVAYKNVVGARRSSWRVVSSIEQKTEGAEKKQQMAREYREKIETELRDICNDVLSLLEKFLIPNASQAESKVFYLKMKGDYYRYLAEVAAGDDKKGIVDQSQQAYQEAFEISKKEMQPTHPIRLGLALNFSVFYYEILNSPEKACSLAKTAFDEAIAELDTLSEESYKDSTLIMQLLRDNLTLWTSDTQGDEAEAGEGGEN
The data set is described as follows: In Vitro Raf Activity Determination (Alpha Screen, phosphorylation of kinase dead MEK1). Format: biochemical. From the text: CRAF cDNA was subcloned as full length protein, with Y340E and Y341E activating mutations, into a baculovirus expression vector for Sf9 insect cell expression. h14-3-3 zeta cDNA was subcloned into a baculovirus expression vector for SF9 insect cell expression. Sf9 cells co-expressing both proteins were lysed and subjected to immobilized nickel chromatography and eluted with Imidazole. A second column (StrepII binding column) was used and eluted with desthiobiotin. Protein Tags were removed using Prescission enzyme and the protein was further purified using a flowthrough step to remove tags.
C-Raf TR refers to a truncated C-Raf protein, a Δ1-324 deletion mutant. C-Raf FL refers to the full-length C-Raf protein.
Full length MEK1 with an inactivating K97R ATP binding site mutation is utilized as a RAF substrate. The MEK1 cDNA was subcloned with an N-terminal (his)6 tag into a vector for E. Coli expression. The MEK1 substrate was purified from E. Coli lysate by nickel affinity chromatography followed by anion exchange. The final MEK1 preparation was biotinylated (Pierce EZ-Link Sulfo-NHS-LC-Biotin) and concentrated.
Assay Materials: Assay buffer is 50 mM Tris, pH 7.5, 15 mM MgCl2, 0.01% Bovine Serum Albumin (BSA) and 1 mM dithiothreitol (DTT); Stop buffer is 60 mM ethylenediaminetetraacetic acid (EDTA) and 0.01% Tween® 20; b-Raf (V600E), active; biotinylated Mek, kinase dead; Alpha Screen detection kit (available from PerkinElmer™ #6760617R); Anti phospho-MEK1/2 (available from Cell Signaling Technology, Inc. #9121); 384 well low volume assay plates (White Greiner® plates).
Assay conditions: b-Raf (V600E) approximately 4 pM; c-Raf approximately 4 nM; biotinylated Mek, kinase dead approximately 10 nM; ATP 10 μM for BRAF (V600E) and 1 μM for CRAF; Pre-incubation time with compounds 60 minutes at room temperature; Reaction time 1 or 3 hours at room temperature.
Assay protocol: Raf and biotinylated Mek (kinase dead) were combined at 2× final concentrations in assay buffer (50 mM Tris, pH 7.5, 15 mM MgCl2, 0.01% BSA and 1 mM DTT) and dispensed […] per well in assay plates (Greiner white 384 well assay plates #781207) containing […] of 40× of a Raf kinase inhibitor test compound diluted in 100% DMSO. The plate was incubated for 60 minutes at room temperature. The Raf kinase activity reaction was started by the addition of […] per well of 2×ATP diluted in assay buffer. After 3 hours (b-Raf(V600E)) or 1 hour (c-Raf). The reactions were stopped and the phosphorylated product was measured using a rabbit anti-p-MEK (Cell Signaling, #9121) antibody and the Alpha Screen IgG (ProteinA) detection Kit (PerkinElmer #6760617R), by the addition of […] to the well of a mixture of the antibody (1:2000 dilution) and detection beads (1:2000 dilution of both beads) in Stop/bead buffer (25 mM EDTA, 50 mM Tris, pH 7.5, 0.01% Tween20). The additions were carried out under dark conditions to protect the detection beads from light. A lid was placed on top of the plate and incubated for 1 hour at room temperature, after which the luminescence was read on a PerkinElmer Envision instrument. The concentration of each compound for 50% inhibition (IC50) was calculated by non-linear regression using XL Fit data analysis software.

Where [2] appears, read: phosphate Example itself, buffer (pH 6.8, pH 4.0 or FaSSIF) not given, 16-24 hours at room temperature.
Where [3] appears, read: c-Raf approximately 4 nM, ATP 1 μM, pre-incubation 60 minutes, reaction 1 hour at room temperature, read-out: C-Raf.

Structures are written as SMILES. In brackets after ≈: the same amount, converted by molar mass. Like-named read-outs stand apart in the source and are kept apart here. Some results are limits rather than exact numbers.

In the case of `Cc1ccc(NC(=O)c2ccnc(C(F)(F)F)c2)cc1-c1cc(OCCOP(=O)(O)O)nc(N2CCOCC2)c1` [Example 1, 2-((4-(2-methyl-5-(2-(trifluoromethyl)isonicotinamido)phenyl)-6-morpholinopyridin-2-yl)oxy)ethyl dihydrogen phosphate], in data set [1] (874 μM versus 18 μM), the “improvement of solubility compared with the corresponding non-phosphate molecule” value was “greater than 48 fold”. Besides, the solubility in data set [1] (buffer not stated) came to 874 µM. On C-Raf (read-out: inhibitory efficacy for C-Raf), the IC50 was 0.1 nM. `Cc1ccc(NC(=O)c2cccc(C(F)(F)F)c2)cc1-c1cc(OCCOP(=O)(O)O)nc(N2CCOC[C@H]2C)c1` [Example 2, (R)-2-((4-(2-methyl-5-(3-(trifluoromethyl)benzamido)phenyl)-6-(3-methylmorpholino)pyridin-2-yl)oxy)ethyl dihydrogen phosphate] came in with a solubility in data set [1] (setting [2]) of less than 1000 µM. Also, on C-Raf (setting [3]), the IC50 turned out to be 6 nM. The corresponding values for `Cc1ccc(NC(=O)c2cc(C(F)(F)F)ccn2)cc1-c1cc(OC[C@@H](O)COP(=O)(O)O)nc(N2CCOCC2)c1` [Example 3, (R)-2-hydroxy-3-((4-(2-methyl-5-(4-(trifluoromethyl)picolinamido)phenyl)-6-morpholinopyridin-2-yl)oxy)propyl dihydrogen phosphate] are 987 µM and 0.024 nM. Consider `Cc1ncc(NC(=O)c2cccc(C(F)(F)F)c2)cc1-c1cc(OCCOP(=O)(O)O)nc(N2CCOC[C@H]2C)c1` [Example 4, (R)-2-((2-methyl-6′-(3-methylmorpholino)-5-(3-(trifluoromethyl)-benzamido)-[3,4′-bipyridin]-2′-yl)oxy)-ethyl dihydrogen phosphate], for which the solubility in data set [1] (setting [2]) is 617 µM. For the same compound, the IC50 on C-Raf (setting [3]) came out at 0.7 nM. As to `Cc1ncc(NC(=O)c2cccc(C(F)(F)F)c2)cc1-c1cc(OCCOP(=O)(O)O)nc(N2CCOCC2)c1` [Example 5, 2-((2-methyl-6′-morpholino-5-(3-(trifluoromethyl)benz amido)-[3,4′-bipyridin]-2′-yl)oxy)ethyl dihydrogen phosphate], the solubility in data set [1] (setting [2]) came out at 725 µM. For the same compound, on C-Raf (setting [3]), the IC50 is 0.1 nM. `Cc1ccc(NC(=O)c2ccnc(C(C)(F)F)c2)cc1-c1cc(OCCOP(=O)(O)O)nc(N2CCOC[C@H]2C)c1` [Example 6, (R)-2-((4-(5-(2-(1,1-difluoroethyl)isonicotin amido)-2-methylphenyl)-6-(3-methylmorpholino)pyridin-2-yl)oxy)ethyl dihydrogen phosphate] came in with a solubility in data set [1] (setting [2]) of 675 µM. The IC50 at C-Raf (setting [3]) stood at 0.3 nM.

In turn, `Cc1ccc(NC(=O)c2cccc(C(F)(F)F)c2)cc1-c1cc(OCCOP(=O)(O)O)nc(N2CCOCC2)c1` [Example 7, 2-((4-(2-methyl-5-(3-(trifluoromethyl)benzamido)phenyl)-6-morpholinopyridin-2-yl)oxy)ethyl dihydrogen phosphate] yielded a solubility in data set [1] (setting [2]) of 124 µM. Further, the IC50 on C-Raf (setting [3]) was 0.05 nM.

Regarding `Cc1ccc(NC(=O)c2ccnc(C(C)(C)F)c2)cc1-c1cc(OCCOP(=O)(O)O)nc(N2CCOCC2)c1` [Example 9, 2-((4-(5-(2-(2-fluoropropan-2-yl)isonicotinamido)-2-methylphenyl)-6-morpholinopyridin-2-yl)oxy)ethyl dihydrogen phosphate], the solubility in data set [1] (setting [2]) stood at 841 µM. Moreover, at C-Raf (setting [3]), the IC50 worked out at 0.5 nM. In data set [1] (setting [2]), `Cc1ccc(NC(=O)c2ccnc(C(C)(F)F)c2)cc1-c1cc(OCCOP(=O)(O)O)nc(N2CCOCC2)c1` [Example 10, 2-((4-(5-(2-(1,1-difluoroethyl)isonicotin amido)-2-methylphenyl)-6-morpholinopyridin-2-yl)oxy)ethyl dihydrogen phosphate] showed a solubility of 635 µM. In addition, the IC50 on C-Raf (setting [3]) was 0.3 nM. The corresponding values for `Cc1ccc(NC(=O)c2ccnc(C(C)(C)F)c2)cc1-c1cc(OCCOP(=O)(O)O)nc(N2CCOC[C@H]2C)c1` [Example 11, (R)-2-((4-(5-(2-(2-fluoropropan-2-yl)isonicotinamido)-2-methylphenyl)-6-(3-methylmorpholino)pyridin-2-yl)oxy)ethyl dihydrogen phosphate] are less than 1000 µM and 2 nM. With `Cc1ccc(NC(=O)c2ccnc(C(F)(F)F)c2)cc1-c1cc(OCCOP(=O)(O)O)nc(N2CCOC[C@H]2C)c1` [Example 12, (R)-2-((4-(2-methyl-5-(2-(trifluoromethyl)-isonicotinamido)phenyl)-6-(3-methyl-morpholino)pyridin-2-yl)oxy)ethyl dihydrogen phosphate], in data set [1] (setting [2]), the solubility was 939 µM. Further, the IC50 on C-Raf (setting [3]) turned out to be 2 nM. `Cc1ccc(NC(=O)c2ccnc(C(F)(F)F)c2)cc1-c1cnc(OCCOP(=O)(O)O)c(N2CCOCC2)c1` [Example 13, 2-((5-(2-methyl-5-(2-(trifluoromethyl)isonicotinamido)phenyl)-3-morpholinopyridin-2-yl)oxy)ethyl dihydrogen phosphate]: the solubility in data set [1] (setting [2]) was found to be 792 µM. Moreover, on C-Raf (setting [3]), the IC50 was found to be 0.03 nM.

With `Cc1ccc(NC(=O)c2ccnc(C(C)(F)F)c2)cc1-c1cnc(OCCOP(=O)(O)O)c(N2CCOCC2)c1` [Example 14, 2-((5-(5-(2-(1,1-difluoroethyl)isonicotin amido)-2-methylphenyl)-3-morpholinopyridin-2-yl)oxy)ethyl dihydrogen phosphate], the solubility in data set [1] (setting [2]) was 897 µM. Also, at C-Raf (setting [3]), the IC50 was 0.04 nM. Consider `Cc1ccc(NC(=O)c2ccnc(C(C)(C)F)c2)cc1-c1cnc(OCCOP(=O)(O)O)c(N2CCOCC2)c1` [Example 15, 2-((5-(5-(2-(2-fluoropropan-2-yl)isonicotinamido)-2-methylphenyl)-3-morpholinopyridin-2-yl)oxy)ethyl dihydrogen phosphate], for which, in data set [1] (setting [2]), the solubility is 936 µM. The IC50 at C-Raf (setting [3]) was determined as 0.4 nM. Consider `Cc1ccc(NC(=O)c2cccc(C(F)(F)F)c2)cc1-c1cnc(OCCOP(=O)(O)O)c(N2CCOCC2)c1` [Example 16, 2-((5-(2-methyl-5-(3-(trifluoromethyl)benzamido)phenyl)-3-morpholinopyridin-2-yl)oxy)ethyl dihydrogen phosphate], for which the solubility in data set [1] (setting [2]) was less than 1000 µM. Also, at C-Raf (setting [3]), the IC50 was found to be 1 nM. For `Cc1ccc(NC(=O)c2cc(C(F)(F)F)ccn2)cc1-c1cc(OCCOP(=O)(O)O)nc(N2CCOCC2)c1` [Example 17, 2-((4-(2-methyl-5-(4-(trifluoromethyl)picolin amido)phenyl)-6-morpholinopyridin-2-yl)oxy)ethyl dihydrogen phosphate], the solubility in data set [1] (setting [2]) amounted to 253 µM. Further, the IC50 on C-Raf (setting [3]) worked out at 0.02 nM.

Take `Cc1ncc(NC(=O)c2cccc(C(F)(F)F)c2)cc1-c1cnc(OCCOP(=O)(O)O)c(N2CCOCC2)c1` [Example 18, 2-((2′-methyl-5-morpholino-5′-(3-(trifluoromethyl)benzamido)-[3,3′-bipyridin]-6-yl)oxy)ethyl dihydrogen phosphate]: the IC50 on C-Raf (setting [3]) worked out at 0.02 nM.

Compound `Cc1ccc(NC(=O)c2ccnc(C(F)(F)F)c2)cc1-c1cc(OCCO)nc(N2CCOCC2)c1` [N-(3-(2-(2-hydroxyethoxy)-6-morpholinopyridin-4-yl)-4-methylphenyl)-2-(trifluoromethyl)isonicotinamide, reference compound] gave a solubility in data set [1] (buffer not stated) of 18 µM (≈ 9.04 µg/mL).
